In the NIST ThermoML archive (doi:10.1021/je3013205):

Test: xn = mol fraction of the nth substance listed
Conditions: 101 kPa, Liquid, Vibrating tube method

OCCO [1,2-ethanediol] + NCCO
x1 = 1
Conditions | mass density [kg/m3]
283.15 K | 1119.29
293.15 K | 1112.37
303.15 K | 1105.39
313.15 K | 1098.34
323.15 K | 1091.21
333.15 K | 1083.99
343.15 K | 1076.65

OCCO [1,2-ethanediol] + NCCOCCO
x1 = 1
Conditions | mass density [kg/m3]
283.15 K | 1119.29
293.15 K | 1112.37
303.15 K | 1105.39
313.15 K | 1098.34
323.15 K | 1091.21
333.15 K | 1083.99
343.15 K | 1076.65

NCCOCCO [2-(2-aminoethoxy)ethanol] + CC(C)O
mass density [kg/m3]
Conditions | x2 = 0 | x2 = 0.1002 | x2 = 0.2002 | x2 = 0.2999 | x2 = 0.3998 | x2 = 0.5001 | x2 = 0.6 | x2 = 0.7001 | x2 = 0.7999 | x2 = 0.9
283.15 K | 1063.9 | 1045.45 | 1024.83 | 1002.4 | 978.848 | 953.526 | 926.557 | 896.824 | 864.765 | 830.522
293.15 K | 1055.86 | 1037.41 | 1016.77 | 994.333 | 970.775 | 945.419 | 918.428 | 888.658 | 856.572 | 822.302
303.15 K | 1047.8 | 1029.32 | 1008.68 | 986.21 | 962.634 | 937.23 | 910.206 | 880.385 | 848.24 | 813.893
313.15 K | 1039.73 | 1021.21 | 1000.54 | 978.03 | 954.426 | 928.957 | 901.852 | 871.966 | 839.727 | 805.266
323.15 K | 1031.63 | 1013.07 | 992.342 | 969.77 | 946.127 | 920.579 | 893.378 | 863.375 | 831.011 | 796.354
333.15 K | 1023.46 | 1004.87 | 984.07 | 961.425 | 937.625 | 912.056 | 884.74 | 854.584 | 822.035 | 787.116
343.15 K | 1015.24 | 996.578 | 975.712 | 952.983 | 929.152 | 903.381 | 875.931 | 845.569 | 812.769 | 777.485

NCCOCCO [2-(2-aminoethoxy)ethanol] + CO
mass density [kg/m3]
Conditions | x2 = 0 | x2 = 0.0999 | x2 = 0.1999 | x2 = 0.3001 | x2 = 0.4 | x2 = 0.5 | x2 = 0.6002 | x2 = 0.6999 | x2 = 0.8 | x2 = 0.9001
283.15 K | 1063.9 | 1055.89 | 1046 | 1034.44 | 1019.81 | 1002.23 | 980.617 | 953.558 | 916.98 | 868.243
293.15 K | 1055.86 | 1047.82 | 1037.87 | 1026.25 | 1011.56 | 993.898 | 972.194 | 945.032 | 908.292 | 859.298
303.15 K | 1047.8 | 1039.72 | 1029.71 | 1018.04 | 1003.27 | 985.526 | 963.722 | 936.443 | 899.545 | 850.287
313.15 K | 1039.73 | 1031.59 | 1021.52 | 1009.78 | 995.032 | 977.101 | 955.185 | 927.795 | 890.727 | 841.205
323.15 K | 1031.63 | 1023.41 | 1013.29 | 1001.48 | 986.54 | 968.618 | 946.586 | 919.061 | 881.797 | 832.01
333.15 K | 1023.46 | 1015.19 | 1004.99 | 993.102 | 978.075 | 960.052 | 937.892 | 910.228 | 872.764 | 822.672

NCCOCCO [2-(2-aminoethoxy)ethanol] + OCCO
mass density [kg/m3]
Conditions | x2 = 0 | x2 = 0.0999 | x2 = 0.1998 | x2 = 0.2998 | x2 = 0.4001 | x2 = 0.4999 | x2 = 0.5999 | x2 = 0.7002 | x2 = 0.8 | x2 = 0.8998
283.15 K | 1063.9 | 1069.41 | 1074.47 | 1079.73 | 1084.82 | 1090.24 | 1095.7 | 1101.26 | 1107.46 | 1113.95
293.15 K | 1055.86 | 1061.43 | 1066.58 | 1071.94 | 1077.11 | 1082.67 | 1088.26 | 1093.92 | 1100.25 | 1106.86
303.15 K | 1047.8 | 1053.44 | 1058.65 | 1064.1 | 1069.38 | 1075.06 | 1080.79 | 1086.54 | 1093 | 1099.72
313.15 K | 1039.73 | 1045.41 | 1050.69 | 1056.23 | 1061.6 | 1067.42 | 1073.26 | 1079.13 | 1085.7 | 1092.53
323.15 K | 1031.63 | 1037.35 | 1042.69 | 1048.31 | 1053.78 | 1059.7 | 1065.66 | 1071.68 | 1078.32 | 1085.26
333.15 K | 1023.46 | 1029.22 | 1034.63 | 1040.32 | 1045.89 | 1051.9 | 1057.97 | 1064.11 | 1070.86 | 1077.9
343.15 K | 1015.24 | 1021.03 | 1026.5 | 1032.27 | 1037.92 | 1044.03 | 1050.2 | 1056.51 | 1063.3 | 1070.45
